# Numbers after ± are expanded uncertainties.
# Assay: not given
# Conditions: 298.15 K; 101.33 kPa; Liquid; Falling or rolling sphere viscometry
row,SMILES,viscosity
1,CCCCCCCCCCCCn1cc[n+](C)c1.O=S(=O)([N-]S(=O)(=O)C(F)(F)F)C(F)(F)F,125 ± 4 mPa·s

# Same assay, conditions: 298.15 K; 101.33 kPa; Liquid; Vibrating tube method
row,SMILES,mass density
1,CCCCCCCCCCCCn1cc[n+](C)c1.O=S(=O)([N-]S(=O)(=O)C(F)(F)F)C(F)(F)F,1242.9 ± 2.9 kg/m3

# Same assay, conditions: 303.15 K; 101.33 kPa; Liquid; Vibrating tube method
row,SMILES,mass density
1,CCCCCCCCCCCCn1cc[n+](C)c1.O=S(=O)([N-]S(=O)(=O)C(F)(F)F)C(F)(F)F,1238.8 ± 2.9 kg/m3

# Same assay, conditions: 308.15 K; 101.33 kPa; Liquid; Falling or rolling sphere viscometry
row,SMILES,viscosity
1,CCCCCCCCCCCCn1cc[n+](C)c1.O=S(=O)([N-]S(=O)(=O)C(F)(F)F)C(F)(F)F,76.7 ± 1.6 mPa·s

# Same assay, conditions: 308.15 K; 101.33 kPa; Liquid; Vibrating tube method
row,SMILES,mass density
1,CCCCCCCCCCCCn1cc[n+](C)c1.O=S(=O)([N-]S(=O)(=O)C(F)(F)F)C(F)(F)F,1234.6 ± 2.9 kg/m3

# Same assay, conditions: 313.15 K; 101.33 kPa; Liquid; Vibrating tube method
row,SMILES,mass density
1,CCCCCCCCCCCCn1cc[n+](C)c1.O=S(=O)([N-]S(=O)(=O)C(F)(F)F)C(F)(F)F,1230.4 ± 2.9 kg/m3

# Same assay, conditions: 318.15 K; 101.33 kPa; Liquid; Falling or rolling sphere viscometry
row,SMILES,viscosity
1,CCCCCCCCCCCCn1cc[n+](C)c1.O=S(=O)([N-]S(=O)(=O)C(F)(F)F)C(F)(F)F,52.7 ± 0.9 mPa·s

# Same assay, conditions: 318.15 K; 101.33 kPa; Liquid; Vibrating tube method
row,SMILES,mass density
1,CCCCCCCCCCCCn1cc[n+](C)c1.O=S(=O)([N-]S(=O)(=O)C(F)(F)F)C(F)(F)F,1226.2 ± 2.9 kg/m3

# Same assay, conditions: 323.15 K; 101.33 kPa; Liquid; Vibrating tube method
row,SMILES,mass density
1,CCCCCCCCCCCCn1cc[n+](C)c1.O=S(=O)([N-]S(=O)(=O)C(F)(F)F)C(F)(F)F,1222 ± 2.9 kg/m3

# Same assay, conditions: 328.15 K; 101.33 kPa; Liquid; Falling or rolling sphere viscometry
row,SMILES,viscosity
1,CCCCCCCCCCCCn1cc[n+](C)c1.O=S(=O)([N-]S(=O)(=O)C(F)(F)F)C(F)(F)F,37 ± 0.6 mPa·s

# Same assay, conditions: 328.15 K; 101.33 kPa; Liquid; Vibrating tube method
row,SMILES,mass density
1,CCCCCCCCCCCCn1cc[n+](C)c1.O=S(=O)([N-]S(=O)(=O)C(F)(F)F)C(F)(F)F,1217.8 ± 2.9 kg/m3

# Same assay, conditions: 333.15 K; 101.33 kPa; Liquid; Vibrating tube method
row,SMILES,mass density
1,CCCCCCCCCCCCn1cc[n+](C)c1.O=S(=O)([N-]S(=O)(=O)C(F)(F)F)C(F)(F)F,1213.6 ± 2.9 kg/m3

# Same assay, conditions: 338.15 K; 101.33 kPa; Liquid; Falling or rolling sphere viscometry
row,SMILES,viscosity
1,CCCCCCCCCCCCn1cc[n+](C)c1.O=S(=O)([N-]S(=O)(=O)C(F)(F)F)C(F)(F)F,26.6 ± 0.5 mPa·s

# Same assay, conditions: 338.15 K; 101.33 kPa; Liquid; Vibrating tube method
row,SMILES,mass density
1,CCCCCCCCCCCCn1cc[n+](C)c1.O=S(=O)([N-]S(=O)(=O)C(F)(F)F)C(F)(F)F,1209.5 ± 2.9 kg/m3

# Same assay, conditions: 343.15 K; 101.33 kPa; Liquid; Vibrating tube method
row,SMILES,mass density
1,CCCCCCCCCCCCn1cc[n+](C)c1.O=S(=O)([N-]S(=O)(=O)C(F)(F)F)C(F)(F)F,1205.3 ± 2.9 kg/m3

# Same assay, conditions: 348.15 K; 101.33 kPa; Liquid; Falling or rolling sphere viscometry
row,SMILES,viscosity
1,CCCCCCCCCCCCn1cc[n+](C)c1.O=S(=O)([N-]S(=O)(=O)C(F)(F)F)C(F)(F)F,19.5 ± 0.3 mPa·s

# Same assay, conditions: 348.15 K; 101.33 kPa; Liquid; Vibrating tube method
row,SMILES,mass density
1,CCCCCCCCCCCCn1cc[n+](C)c1.O=S(=O)([N-]S(=O)(=O)C(F)(F)F)C(F)(F)F,1201.2 ± 2.9 kg/m3

# Same assay, conditions: 353.15 K; 101.33 kPa; Liquid; Vibrating tube method
row,SMILES,mass density
1,CCCCCCCCCCCCn1cc[n+](C)c1.O=S(=O)([N-]S(=O)(=O)C(F)(F)F)C(F)(F)F,1197.1 ± 2.9 kg/m3

# Same assay, conditions: 358.15 K; 101.33 kPa; Liquid; Falling or rolling sphere viscometry
row,SMILES,viscosity
1,CCCCCCCCCCCCn1cc[n+](C)c1.O=S(=O)([N-]S(=O)(=O)C(F)(F)F)C(F)(F)F,14.7 ± 0.3 mPa·s

# Same assay, conditions: 358.15 K; 101.33 kPa; Liquid; Vibrating tube method
row,SMILES,mass density
1,CCCCCCCCCCCCn1cc[n+](C)c1.O=S(=O)([N-]S(=O)(=O)C(F)(F)F)C(F)(F)F,1193 ± 2.8 kg/m3

# Same assay, conditions: 363.15 K; 101.33 kPa; Liquid; Vibrating tube method
row,SMILES,mass density
1,CCCCCCCCCCCCn1cc[n+](C)c1.O=S(=O)([N-]S(=O)(=O)C(F)(F)F)C(F)(F)F,1188.9 ± 2.8 kg/m3

# Same assay, conditions: 368.15 K; 101.33 kPa; Liquid; Falling or rolling sphere viscometry
row,SMILES,viscosity
1,CCCCCCCCCCCCn1cc[n+](C)c1.O=S(=O)([N-]S(=O)(=O)C(F)(F)F)C(F)(F)F,11.4 ± 0.2 mPa·s

# Same assay, conditions: 368.15 K; 101.33 kPa; Liquid; Vibrating tube method
row,SMILES,mass density
1,CCCCCCCCCCCCn1cc[n+](C)c1.O=S(=O)([N-]S(=O)(=O)C(F)(F)F)C(F)(F)F,1184.9 ± 2.8 kg/m3

# Same assay, conditions: Crystal; DTA
row,SMILES,Normal melting temperature
1,CCCCCCCCCCCCn1cc[n+](C)c1.O=S(=O)([N-]S(=O)(=O)C(F)(F)F)C(F)(F)F,19.2 ± 0.4 °C

# Assay: Molar enthalpy of transition or fusion
# Conditions: Crystal; DSC
row,SMILES,Molar enthalpy of transition or fusion
1,CCCCCCCCCCCCn1cc[n+](C)c1.O=S(=O)([N-]S(=O)(=O)C(F)(F)F)C(F)(F)F,8.6 ± 0.287 kcal/mol

# Assay: activity coefficient (dimensionless); of the first substance listed, at infinite dilution; xn = mol fraction of the nth substance listed
# Conditions: 318.15 K; 101.33 kPa; Liquid; Chromatography; x1 = 0
row,SMILES,activity coefficient
1,C1CCCC1 [cyclopentane] + CCCCCCCCCCCCn1cc[n+](C)c1.O=S(=O)([N-]S(=O)(=O)C(F)(F)F)C(F)(F)F,1.75 ± 0.12
2,CCCCCCCCCC [decane] + CCCCCCCCCCCCn1cc[n+](C)c1.O=S(=O)([N-]S(=O)(=O)C(F)(F)F)C(F)(F)F,5.82 ± 0.4
3,CCOCC [diethyl ether] + CCCCCCCCCCCCn1cc[n+](C)c1.O=S(=O)([N-]S(=O)(=O)C(F)(F)F)C(F)(F)F,0.983 ± 0.062
4,CC(C)OC(C)C [diisopropyl ether] + CCCCCCCCCCCCn1cc[n+](C)c1.O=S(=O)([N-]S(=O)(=O)C(F)(F)F)C(F)(F)F,1.65 ± 0.11
5,CCCOCCC [dipropyl ether] + CCCCCCCCCCCCn1cc[n+](C)c1.O=S(=O)([N-]S(=O)(=O)C(F)(F)F)C(F)(F)F,1.67 ± 0.11
6,CCO [ethanol] + CCCCCCCCCCCCn1cc[n+](C)c1.O=S(=O)([N-]S(=O)(=O)C(F)(F)F)C(F)(F)F,1.38 ± 0.09
7,CCOC(C)=O [ethyl acetate] + CCCCCCCCCCCCn1cc[n+](C)c1.O=S(=O)([N-]S(=O)(=O)C(F)(F)F)C(F)(F)F,0.541 ± 0.04
8,CCc1ccccc1 [ethylbenzene] + CCCCCCCCCCCCn1cc[n+](C)c1.O=S(=O)([N-]S(=O)(=O)C(F)(F)F)C(F)(F)F,0.911 ± 0.058
9,CCCCCCC [heptane] + CCCCCCCCCCCCn1cc[n+](C)c1.O=S(=O)([N-]S(=O)(=O)C(F)(F)F)C(F)(F)F,3.55 ± 0.24
10,C=CCCCC [hex-1-ene] + CCCCCCCCCCCCn1cc[n+](C)c1.O=S(=O)([N-]S(=O)(=O)C(F)(F)F)C(F)(F)F,2.15 ± 0.15
11,CCCCCC [hexane] + CCCCCCCCCCCCn1cc[n+](C)c1.O=S(=O)([N-]S(=O)(=O)C(F)(F)F)C(F)(F)F,2.96 ± 0.2
12,CC(C)c1ccccc1 [isopropylbenzene] + CCCCCCCCCCCCn1cc[n+](C)c1.O=S(=O)([N-]S(=O)(=O)C(F)(F)F)C(F)(F)F,1.15 ± 0.07
13,CO [methanol] + CCCCCCCCCCCCn1cc[n+](C)c1.O=S(=O)([N-]S(=O)(=O)C(F)(F)F)C(F)(F)F,1.29 ± 0.08
14,CCCC(=O)OC [methyl butanoate] + CCCCCCCCCCCCn1cc[n+](C)c1.O=S(=O)([N-]S(=O)(=O)C(F)(F)F)C(F)(F)F,0.613 ± 0.043
15,COC(C)=O [methyl ethanoate] + CCCCCCCCCCCCn1cc[n+](C)c1.O=S(=O)([N-]S(=O)(=O)C(F)(F)F)C(F)(F)F,0.503 ± 0.038
16,CCC(=O)OC [methyl propanoate] + CCCCCCCCCCCCn1cc[n+](C)c1.O=S(=O)([N-]S(=O)(=O)C(F)(F)F)C(F)(F)F,0.531 ± 0.039
17,CC1CCCCC1 [methylcyclohexane] + CCCCCCCCCCCCn1cc[n+](C)c1.O=S(=O)([N-]S(=O)(=O)C(F)(F)F)C(F)(F)F,2.42 ± 0.16
18,CCCCCCCCC [nonane] + CCCCCCCCCCCCn1cc[n+](C)c1.O=S(=O)([N-]S(=O)(=O)C(F)(F)F)C(F)(F)F,4.92 ± 0.34
19,C=CCCCCCC [oct-1-ene] + CCCCCCCCCCCCn1cc[n+](C)c1.O=S(=O)([N-]S(=O)(=O)C(F)(F)F)C(F)(F)F,3.03 ± 0.21
20,CCCCCCCC [octane] + CCCCCCCCCCCCn1cc[n+](C)c1.O=S(=O)([N-]S(=O)(=O)C(F)(F)F)C(F)(F)F,4.17 ± 0.28
21,CCCCCO [pentan-1-ol] + CCCCCCCCCCCCn1cc[n+](C)c1.O=S(=O)([N-]S(=O)(=O)C(F)(F)F)C(F)(F)F,1.52 ± 0.1
22,CCCC(C)=O [pentan-2-one] + CCCCCCCCCCCCn1cc[n+](C)c1.O=S(=O)([N-]S(=O)(=O)C(F)(F)F)C(F)(F)F,0.421 ± 0.035
23,CCC(=O)CC [pentan-3-one] + CCCCCCCCCCCCn1cc[n+](C)c1.O=S(=O)([N-]S(=O)(=O)C(F)(F)F)C(F)(F)F,0.418 ± 0.035
24,CCCCC [pentane] + CCCCCCCCCCCCn1cc[n+](C)c1.O=S(=O)([N-]S(=O)(=O)C(F)(F)F)C(F)(F)F,2.55 ± 0.17
25,CCCO [propan-1-ol] + CCCCCCCCCCCCn1cc[n+](C)c1.O=S(=O)([N-]S(=O)(=O)C(F)(F)F)C(F)(F)F,1.45 ± 0.1
26,CC(C)O [propan-2-ol] + CCCCCCCCCCCCn1cc[n+](C)c1.O=S(=O)([N-]S(=O)(=O)C(F)(F)F)C(F)(F)F,1.34 ± 0.09
27,CCCc1ccccc1 [propylbenzene] + CCCCCCCCCCCCn1cc[n+](C)c1.O=S(=O)([N-]S(=O)(=O)C(F)(F)F)C(F)(F)F,1.1 ± 0.07
28,c1ccncc1 [pyridine] + CCCCCCCCCCCCn1cc[n+](C)c1.O=S(=O)([N-]S(=O)(=O)C(F)(F)F)C(F)(F)F,0.387 ± 0.034
29,C=Cc1ccccc1 [styrene] + CCCCCCCCCCCCn1cc[n+](C)c1.O=S(=O)([N-]S(=O)(=O)C(F)(F)F)C(F)(F)F,0.632 ± 0.044
30,C1CCOC1 [tetrahydrofuran] + CCCCCCCCCCCCn1cc[n+](C)c1.O=S(=O)([N-]S(=O)(=O)C(F)(F)F)C(F)(F)F,0.394 ± 0.034
